According to patent US20160115540A1, “PRODRUGS AND DRUGS” (Biogen MA Inc., priority 2013, published 2016):
Counter-ions that a name gives are not always drawn.

System: jejunum
Test: Transcriptional profiling on Affymetrix GeneChips, single dose, naïve mice: jejunum
Format: in vivo, C57BL/6 mice
Details: for Number of differentially expressed genes identified: Jenjunum: Naïve, Single Dose, 100 mpk, vs Vehicle
Experimental: Treated mice were sacrificed at 2, 7, or 12 hours. Tissues (liver, spleen, kidney, jejunum, cortex, hippocampus, striatum and whole blood) were collected and analyzed by transcriptional profiling on mouse Affymetrix GeneChips.
Tissues (liver, spleen, kidney, jejunum, cortex, hippocampus, striatum and whole blood) were collected and analyzed by transcriptional profiling on mouse Affymetrix GeneChips.
Animals were exposed to CO2 and whole blood collected via cardiac puncture. Two 100 μl aliquots of whole blood were collected in 1.5 mL microcentrifuge tubes and snap frozen in liquid nitrogen. Peripheral (liver, spleen, kidney and jejunum) and CNS brain (cerebellum, hippocampus, striatum and cortex) tissues were harvested and snap frozen in liquid nitrogen, with special care taken to collect tissues of similar size and from the same location. All samples were stored at −80° C. until RNA extraction was conducted.
For RNA preparation, frozen tissues were placed in 2 mL RNAse-free 96-well blocks with 1.5 mL QIAzol Lysis Reagent (QIAgen) and a 3.2 mm stainless steel bead (BioSpec Products, Bartlesville, Okla.). Tissues were disrupted for four cycles of 45 seconds in a Mini-Beadbeater (Biospec Products). RNA was extracted in chloroform and the aqueous phase was mixed with an equal volume of 70% ethanol. Extracted RNA was applied to RNeasy 96 plates and purified by the spin method according to the manufacturer's protocol (RNeasy 96 Universal Tissue Protocol, QIAgen, Hilden Germany).
Automated sample amplifications and biotin labelings were carried out using the NuGEN Ovation RNA Amplification system V2 (Cat #3100), Ovation WB reagent (Cat #1300) and Encore Biotin module (Cat #4200) (NuGEN Technologies, Inc, San Carlos, Calif.) according to manufacturer's recommendations using an Arrayplex automated liquid handler (Beckman Coulter, Indianapolis, Ind.). Two micrograms of biotin labeled sscDNA probe were hybridized to Affymetrix GeneChip Affymetrix HT_MG-430_PM plate arrays with modified conditions as described in Allaire et al. Washing and staining of the hybridized arrays were completed as described in the GeneChip Expression analysis technical manual for HT plate arrays using the Genechip® Array Station (Affymetrix, Santa Clara, Calif.) with modifications as described in Allaire et al. The processed GeneChip® plate arrays were scanned using GeneTitan scanner (Affymetrix, Santa Clara, Calif.).
Affymetrix scans were subject to quality control (QC) measures. These tests included a visual inspection of the distribution of raw signal intensities and an assessment of RNA degradation, relative log expression (RLE), and normalized unsealed standard error (NUSE). All sample scans that passed these QC metrics were included in the analysis.
All CEL files were subjected to GC-content-based Robust Multi-array Average (GCRMA) normalization (version 2.20.0) (Irizarry R A, et al. Nucleic Acids Res 2003; 31:e15; Li C, et al. Genome Biol 2001; 2:[…]0032). Expression levels were log (base 2) transformed.
All calculations and analyses were carried out using R (version 2.11.1) and Bioconductor computational tools (Gentleman R. Springer Science+Business Media 2005).

[1] = jejunum, 2 hr after single 100 mg/kg oral dose
[2] = jejunum, 7 hr after single 100 mg/kg oral dose
[3] = jejunum, 12 hr after single 100 mg/kg oral dose

Question: `COC(=O)/C=C/C(=O)O` [MMF, monomethyl fumarate] was tested. Which “Gstm7 (1419072_PM_at) differential expression” value (Jejunum, 7 hr) did it give?
Answer: 1.97

Question: What about the “Htatip2 (1451814_PM_a_at) differential expression” value (Jejunum, 7 hr) of the same compound?
Answer: 1.68

Question: And the “Ifit1 (1450783_PM_at) differential expression” value (Jejunum, 7 hr)?
Answer: −1.95

Question: And the “Matn2 (1419442_PM_at) differential expression” value (Jejunum, 7 hr)?
Answer: 1.59

Question: And the “Me1 (1416632_PM_at) differential expression” value (Jejunum, 7 hr)?
Answer: 2.01

Question: What about the “Nqo1 (1423627_PM_at) differential expression” value (Jejunum, 7 hr) of the same compound?
Answer: 2.63

Question: And the “Pgd (1423706_PM_a_at) differential expression” value (Jejunum, 7 hr)?
Answer: 1.55

Question: What about the “Pgm2 (1437240_PM_at) differential expression” value (Jejunum, 7 hr) of the same compound?
Answer: 1.54

Question: What about the “Pir (1429001_PM_at) differential expression” value (Jejunum, 7 hr) of the same compound?
Answer: 5.12

Question: What about the “Prss8 (1418320_PM_at) differential expression” value (Jejunum, 7 hr) of the same compound?
Answer: 1.75

Question: What about the “Rsad2 (1436058_PM_at) differential expression” value (Jejunum, 7 hr) of the same compound?
Answer: −1.81

Question: And the “Rtp4 (1418580_PM_at) differential expression” value (Jejunum, 7 hr)?
Answer: −1.61

Question: What about the “Setd4 (1435405_PM_at) differential expression” value (Jejunum, 7 hr) of the same compound?
Answer: 2.27

Question: And the “Slc5a4b (1422757_PM_at) differential expression” value (Jejunum, 7 hr)?
Answer: 1.79

Question: And the “Slc35e3 (1428805_PM_at) differential expression” value (Jejunum, 7 hr)?
Answer: 1.67

Question: What about the “Txnrd1 (1424487_PM_x_at) differential expression” value (Jejunum, 7 hr) of the same compound?
Answer: 2.07

Question: And the “Ugt2b5 (1419622_PM_at) differential expression” value (Jejunum, 7 hr)?
Answer: 4.50

Question: And the “Ugt2b36 (1455595_PM_at) differential expression” value (Jejunum, 7 hr)?
Answer: 2.50

Question: And the “Abcc3 (1428988_PM_at) differential expression” value (Jejunum, 12 hr)?
Answer: 2.10

Question: What about the “Acsm5 (1437662_PM_at) differential expression” value (Jejunum, 12 hr) of the same compound?
Answer: 1.95

Question: And the “Akr1c12 (1422000_PM_at) differential expression” value (Jejunum, 12 hr)?
Answer: 1.52

Question: What about the “Akr1c12 /// Akr1c13 (1450455_PM_s_at) differential expression” value (Jejunum, 12 hr) of the same compound?
Answer: 1.76

Question: And the “Akr1c13 (1418672_PM_at) differential expression” value (Jejunum, 12 hr)?
Answer: 2.01

Question: And the “Aldh1a7 (1418601_PM_at) differential expression” value (Jejunum, 12 hr)?
Answer: 1.74

Question: What about the “Apob (1457554_PM_at) differential expression” value (Jejunum, 12 hr) of the same compound?
Answer: −1.54

Question: What about the “Blvrb (1451386_PM_at) differential expression” value (Jejunum, 12 hr) of the same compound?
Answer: 1.54

Question: What about the “Ces1e (1419510_PM_at) differential expression” value (Jejunum, 12 hr) of the same compound?
Answer: 2.77

Question: And the “Dio1 (1417991_PM_at) differential expression” value (Jejunum, 12 hr)?
Answer: −1.51

Question: What about the “Ephx1 (1422438_PM_at) differential expression” value (Jejunum, 12 hr) of the same compound?
Answer: 2.17

Question: What about the “Fst (1434458_PM_at) differential expression” value (Jejunum, 12 hr) of the same compound?
Answer: 1.94

Question: And the “G6pd2 /// G6pdx (1422327_PM_s_at) differential expression” value (Jejunum, 12 hr)?
Answer: 1.83

Question: And the “Gm3776 /// Gsta1 /// Gsta2 (1421041_PM_s_at) differential expression” value (Jejunum, 12 hr)?
Answer: 2.09

Question: What about the “Gpx2 (1449279_PM_at) differential expression” value (Jejunum, 12 hr) of the same compound?
Answer: 1.54

Question: What about the “Gsr (1421816_PM_at) differential expression” value (Jejunum, 12 hr) of the same compound?
Answer: 2.67

Question: And the “Gss (1441931_PM_x_at) differential expression” value (Jejunum, 12 hr)?
Answer: 1.55

Question: And the “Gsta3 (1423436_PM_at) differential expression” value (Jejunum, 12 hr)?
Answer: 10.80

Question: What about the “Gsta4 (1416368_PM_at) differential expression” value (Jejunum, 12 hr) of the same compound?
Answer: 2.66

Question: What about the “Gstm1 (1416416_PM_x_at) differential expression” value (Jejunum, 12 hr) of the same compound?
Answer: 3.70

Question: What about the “Gstm2 (1416411_PM_at) differential expression” value (Jejunum, 12 hr) of the same compound?
Answer: 2.20

Question: What about the “Gstm4 (1424835_PM_at) differential expression” value (Jejunum, 12 hr) of the same compound?
Answer: 5.43

Question: And the “Gstm6 (1422072_PM_a_at) differential expression” value (Jejunum, 12 hr)?
Answer: 2.19

Question: And the “Kif1b (1451642_PM_at) differential expression” value (Jejunum, 12 hr)?
Answer: −1.51

Question: What about the “Nqo1 (1423627_PM_at) differential expression” value (Jejunum, 12 hr) of the same compound?
Answer: 2.34

Question: And the “Pir (1429001_PM_at) differential expression” value (Jejunum, 12 hr)?
Answer: 4.19

Question: What about the “Setd4 (1435405_PM_at) differential expression” value (Jejunum, 12 hr) of the same compound?
Answer: 1.60

Question: What about the “Slc5a4b (1422757_PM_at) differential expression” value (Jejunum, 12 hr) of the same compound?
Answer: 2.16

Question: And the “Ugt2b5 (1419622_PM_at) differential expression” value (Jejunum, 12 hr)?
Answer: 5.00

Question: What about the “Ugt2b36 (1455595_PM_at) differential expression” value (Jejunum, 12 hr) of the same compound?
Answer: 3.03

Question: What about the “Number of differentially expressed genes identified: Jenjunum” value (“Number of differentially” for short) (2 h after last dosing) of the same compound?
Answer: 67

Question: What about the “Number of differentially” value (7 h after last dosing) of the same compound?
Answer: 74

Question: What about the “Number of differentially” value (12 h after last dosing) of the same compound?
Answer: 45

Question: What about the “6-Sep (septin 6) mRNA fold change vs vehicle” value [1] of the same compound?
Answer: 1.56

Question: What about the “Bmp2 mRNA fold change vs vehicle” value [1] of the same compound?
Answer: −1.55

Question: And the “Figf mRNA fold change vs vehicle” value [1]?
Answer: 1.63

Question: What about the “Gabarapl1 mRNA fold change vs vehicle” value [1] of the same compound?
Answer: 1.52

Question: What about the “Hfe mRNA fold change vs vehicle” value [1] of the same compound?
Answer: 1.73

Question: What about the “Hmox1 mRNA fold change vs vehicle” value [1] of the same compound?
Answer: 1.81

Question: And the “Lpin2 mRNA fold change vs vehicle” value [1]?
Answer: 1.61

Question: What about the “Lrp8 mRNA fold change vs vehicle” value [1] of the same compound?
Answer: 2.23

Question: And the “Prr5l mRNA fold change vs vehicle” value [1]?
Answer: −1.64

Question: And the “Slc2a1 mRNA fold change vs vehicle” value [1]?
Answer: 1.68

Question: What about the “Slc48a1 mRNA fold change vs vehicle” value [1] of the same compound?
Answer: 1.62

Question: And the “Slfn2 mRNA fold change vs vehicle” value [1]?
Answer: −1.82

Question: What about the “Sos1 mRNA fold change vs vehicle” value [1] of the same compound?
Answer: −1.57

Question: What about the “St3gal6 mRNA fold change vs vehicle” value [1] of the same compound?
Answer: 1.52

Question: What about the “Tkt mRNA fold change vs vehicle” value [1] of the same compound?
Answer: 1.73

Question: What about the “Tnfaip3 mRNA fold change vs vehicle” value [1] of the same compound?
Answer: −1.67

Question: What about the “Abcc2 mRNA fold change vs vehicle” value [2] of the same compound?
Answer: 1.51

Question: What about the “Asns mRNA fold change vs vehicle” value [2] of the same compound?
Answer: 1.60

Question: What about the “Capn13 mRNA fold change vs vehicle” value [2] of the same compound?
Answer: −1.75

Question: What about the “Enkur mRNA fold change vs vehicle” value [2] of the same compound?
Answer: −1.56

Question: What about the “Fam162a mRNA fold change vs vehicle” value [2] of the same compound?
Answer: 1.67

Question: And the “Gm14446 mRNA fold change vs vehicle” value [2]?
Answer: −1.65

Question: And the “Gstm7 mRNA fold change vs vehicle” value [2]?
Answer: 1.97

Question: What about the “Ifit1 mRNA fold change vs vehicle” value [2] of the same compound?
Answer: −1.95

Question: And the “Matn2 mRNA fold change vs vehicle” value [2]?
Answer: 1.59

Question: And the “Me1 mRNA fold change vs vehicle” value [2]?
Answer: 2.01

Question: What about the “Pgd mRNA fold change vs vehicle” value [2] of the same compound?
Answer: 1.55

Question: And the “Rsad2 mRNA fold change vs vehicle” value [2]?
Answer: −1.81

Question: And the “Rtp4 mRNA fold change vs vehicle” value [2]?
Answer: −1.61

Question: And the “Akr1c12 mRNA fold change vs vehicle” value [3]?
Answer: 1.52

Question: And the “Apob mRNA fold change vs vehicle” value [3]?
Answer: −1.54

Question: And the “Dio1 mRNA fold change vs vehicle” value [3]?
Answer: −1.51

Question: What about the “Ephx1 mRNA fold change vs vehicle” value [3] of the same compound?
Answer: 2.17

Question: And the “Fst mRNA fold change vs vehicle” value [3]?
Answer: 1.94

Question: And the “Kif1b mRNA fold change vs vehicle” value [3]?
Answer: −1.51
